According to the supplement of paper PMC10307832:

Columns and labels:
Test in all cases: relative viability (nuclei count vs DMSO), 5 days (fraction); higher = more cells survive
NCI-H23 = test system: NCI-H23
In short: (§1)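 Relative viability is defined as nuclei in treated wells over nuclei in vehicle wells. Duplicate plates were run and medians reported. Lung cancer cell lines in 1536-well plates were dosed by pin tool one day after seeding, with one drug or with a fixed anchor-drug dose plus five library-drug doses (not always all listed) in √10 steps, and nuclei were counted after 5 days.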

HARA = test system: HARA
In short: as §1

201T = test system: 201T
In short: as §1

NCI-H358 = test system: NCI-H358
In short: as §1

HCC-827 = test system: HCC-827
In short: as §1

SK-MES-1 = test system: SK-MES-1
In short: as §1

NCI-H596 = test system: NCI-H596
In short: as §1

SW 900 = test system: SW 900
In short: as §1

NCI-H1437 = test system: NCI-H1437
In short: as §1

NCI-H441 = test system: NCI-H441
In short: as §1

NCI-H1975 = test system: NCI-H1975
In short: as §1

COR-L 105 = test system: COR-L 105
In short: as §1

COR-L23 = test system: COR-L23
In short: as §1

HCC-15 = test system: HCC-15
In short: as §1

NCI-H1666 = test system: NCI-H1666
In short: as §1

NCI-H838 = test system: NCI-H838
In short: as §1

LK-2 = test system: LK-2
In short: as §1

NCI-H650 = test system: NCI-H650
In short: as §1

A-427 = test system: A-427
In short: as §1

EKVX = test system: EKVX
In short: as §1

BEN = test system: BEN
In short: as §1

CC1(C)CCC(c2ccc(Cl)cc2)=C(CN2CCN(c3ccc(C(=O)NS(=O)(=O)c4ccc(N[C@H](CCN5CCOCC5)CSc5ccccc5)c(S(=O)(=O)C(F)(F)F)c4)cc3)CC2)C1 [Navitoclax] + COc1cc2c(Oc3ccc(NC(=O)C4(C(=O)Nc5ccc(F)cc5)CC4)cc3F)ccnc2cc1OCCCN1CCOCC1 [Foretinib] (partner 0.25 µM)
relative viability (NCI-H23; first compound 0.005 µM): 1.04
relative viability (NCI-H23; first compound 0.01581 µM): 1.1
relative viability (NCI-H23; first compound 0.05 µM): 1.08
relative viability (NCI-H23; first compound 0.1581 µM): 0.768
relative viability (NCI-H23; first compound 0.5 µM): 0.882
relative viability (HARA; first compound 0.005 µM): 0.923
relative viability (HARA; first compound 0.01581 µM): 1.05
relative viability (HARA; first compound 0.1581 µM): 0.877
relative viability (HARA; first compound 0.5 µM): 0.863
relative viability (201T; first compound 0.005 µM): 1.2
relative viability (201T; first compound 0.01581 µM): 1.43
relative viability (201T; first compound 0.05 µM): 1.06
relative viability (201T; first compound 0.1581 µM): 1.12
relative viability (201T; first compound 0.5 µM): 1.03
relative viability (NCI-H358; first compound 0.005 µM): 0.743
relative viability (NCI-H358; first compound 0.01581 µM): 0.946
relative viability (NCI-H358; first compound 0.05 µM): 0.613
relative viability (NCI-H358; first compound 0.1581 µM): 0.645
relative viability (NCI-H358; first compound 0.5 µM): 0.728
relative viability (HCC-827; first compound 0.005 µM): 0.914
relative viability (HCC-827; first compound 0.01581 µM): 1.05
relative viability (HCC-827; first compound 0.05 µM): 0.832
relative viability (HCC-827; first compound 0.1581 µM): 1.03
relative viability (HCC-827; first compound 0.5 µM): 1.01
relative viability (SK-MES-1; first compound 0.005 µM): 0.817
relative viability (SK-MES-1; first compound 0.01581 µM): 1.09
relative viability (SK-MES-1; first compound 0.05 µM): 0.916
relative viability (SK-MES-1; first compound 0.1581 µM): 0.895
relative viability (SK-MES-1; first compound 0.5 µM): 1.04
relative viability (NCI-H596; first compound 0.005 µM): 1.08
relative viability (NCI-H596; first compound 0.01581 µM): 0.853
relative viability (NCI-H596; first compound 0.1581 µM): 0.839
relative viability (NCI-H596; first compound 0.5 µM): 0.917
relative viability (SW 900; first compound 0.005 µM): 0.857
relative viability (SW 900; first compound 0.01581 µM): 1.04
relative viability (SW 900; first compound 0.05 µM): 0.819
relative viability (SW 900; first compound 0.1581 µM): 0.643
relative viability (SW 900; first compound 0.5 µM): 0.85
relative viability (NCI-H1437; first compound 0.005 µM): 1.18
relative viability (NCI-H1437; first compound 0.01581 µM): 1.3
relative viability (NCI-H1437; first compound 0.05 µM): 1.1
relative viability (NCI-H1437; first compound 0.1581 µM): 1.31
relative viability (NCI-H1437; first compound 0.5 µM): 1.27
relative viability (NCI-H441; first compound 0.005 µM): 0.958
relative viability (NCI-H441; first compound 0.01581 µM): 1.05
relative viability (NCI-H441; first compound 0.05 µM): 1.05
relative viability (NCI-H441; first compound 0.1581 µM): 0.945
relative viability (NCI-H441; first compound 0.5 µM): 0.948
relative viability (NCI-H1975; first compound 0.005 µM): 0.887
relative viability (NCI-H1975; first compound 0.01581 µM): 1.03
relative viability (NCI-H1975; first compound 0.05 µM): 1.03
relative viability (NCI-H1975; first compound 0.1581 µM): 0.914
relative viability (NCI-H1975; first compound 0.5 µM): 1.04
relative viability (COR-L 105; first compound 0.005 µM): 1.17
relative viability (COR-L 105; first compound 0.01581 µM): 1.46
relative viability (COR-L 105; first compound 0.05 µM): 1.31
relative viability (COR-L 105; first compound 0.1581 µM): 0.865
relative viability (COR-L 105; first compound 0.5 µM): 0.979
relative viability (COR-L23; first compound 0.005 µM): 0.957
relative viability (COR-L23; first compound 0.01581 µM): 1.13
relative viability (COR-L23; first compound 0.05 µM): 1.02
relative viability (COR-L23; first compound 0.1581 µM): 0.938
relative viability (COR-L23; first compound 0.5 µM): 0.947
relative viability (HCC-15; first compound 0.005 µM): 1.01
relative viability (HCC-15; first compound 0.01581 µM): 1.05
relative viability (HCC-15; first compound 0.05 µM): 0.977
relative viability (HCC-15; first compound 0.1581 µM): 0.982
relative viability (HCC-15; first compound 0.5 µM): 0.918
relative viability (NCI-H1666; first compound 0.005 µM): 0.941
relative viability (NCI-H1666; first compound 0.01581 µM): 1.04
relative viability (NCI-H1666; first compound 0.05 µM): 0.965
relative viability (NCI-H1666; first compound 0.1581 µM): 0.998
relative viability (NCI-H1666; first compound 0.5 µM): 0.964
relative viability (NCI-H838; first compound 0.005 µM): 0.976
relative viability (NCI-H838; first compound 0.01581 µM): 1.09
relative viability (NCI-H838; first compound 0.05 µM): 1.19
relative viability (NCI-H838; first compound 0.1581 µM): 1.01
relative viability (NCI-H838; first compound 0.5 µM): 1.03
relative viability (LK-2; first compound 0.005 µM): 1.22
relative viability (LK-2; first compound 0.01581 µM): 1.15
relative viability (LK-2; first compound 0.05 µM): 0.645
relative viability (LK-2; first compound 0.1581 µM): 1.24
relative viability (LK-2; first compound 0.5 µM): 1.08
relative viability (NCI-H650; first compound 0.005 µM): 1.05
relative viability (NCI-H650; first compound 0.01581 µM): 1.15
relative viability (NCI-H650; first compound 0.05 µM): 1
relative viability (NCI-H650; first compound 0.1581 µM): 1.04
relative viability (NCI-H650; first compound 0.5 µM): 1.07
relative viability (A-427; first compound 0.005 µM): 0.988
relative viability (A-427; first compound 0.01581 µM): 1.07
relative viability (A-427; first compound 0.05 µM): 0.821
relative viability (A-427; first compound 0.1581 µM): 1.04
relative viability (A-427; first compound 0.5 µM): 1.1
relative viability (EKVX; first compound 0.005 µM): 1.02
relative viability (EKVX; first compound 0.01581 µM): 1.01
relative viability (EKVX; first compound 0.05 µM): 0.544
relative viability (EKVX; first compound 0.1581 µM): 0.8
relative viability (EKVX; first compound 0.5 µM): 0.629
relative viability (BEN; first compound 0.005 µM): 0.69
relative viability (BEN; first compound 0.01581 µM): 0.664
relative viability (BEN; first compound 0.05 µM): 0.604
relative viability (BEN; first compound 0.1581 µM): 0.719
relative viability (BEN; first compound 0.5 µM): 0.114
